Key:
Assay in all cases: relative viability (nuclei count vs DMSO), 5 days (fraction); higher = more cells survive
AZD8055 + Foretinib = compound: COc1ccc(-c2ccc3c(N4CCOC[C@@H]4C)nc(N4CCOC[C@@H]4C)nc3n2)cc1CO [AZD8055] + COc1cc2c(Oc3ccc(NC(=O)C4(C(=O)Nc5ccc(F)cc5)CC4)cc3F)ccnc2cc1OCCCN1CCOCC1 [Foretinib] (partner 0.25 µM)
In short: (§1)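 For relative viability, nuclei counts in treated wells were divided by those in vehicle wells. Lung cancer cell lines had been pin-tool dosed in 1536-well plates the day after seeding and cultured for 5 days, then fixed and stained in one step (final 0.05% Triton X-100, 1% formaldehyde, 1 ug/ml Hoechst) and imaged at 4×. Doses were one drug alone or a fixed anchor-drug dose plus five library-drug doses (not always all listed) in √10 steps, and values are duplicate-plate medians.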

AZD8055 + Alpelisib = compound: COc1ccc(-c2ccc3c(N4CCOC[C@@H]4C)nc(N4CCOC[C@@H]4C)nc3n2)cc1CO [AZD8055] + Cc1nc(NC(=O)N2CCC[C@H]2C(N)=O)sc1-c1ccnc(C(C)(C)C(F)(F)F)c1 [Alpelisib] (partner 2 µM)
In short: as §1

AZD8055 + Pemetrexed = compound: COc1ccc(-c2ccc3c(N4CCOC[C@@H]4C)nc(N4CCOC[C@@H]4C)nc3n2)cc1CO [AZD8055] + Nc1nc2[nH]cc(CCc3ccc(C(=O)N[C@@H](CCC(=O)O)C(=O)O)cc3)c2c(=O)[nH]1 [Pemetrexed] (partner 0.2 µM)
In short: as §1

AZD8055 + Olaparib = compound: COc1ccc(-c2ccc3c(N4CCOC[C@@H]4C)nc(N4CCOC[C@@H]4C)nc3n2)cc1CO [AZD8055] + O=C(c1cc(Cc2n[nH]c(=O)c3ccccc23)ccc1F)N1CCN(C(=O)C2CC2)CC1 [Olaparib] (partner 8 µM)
In short: as §1

| Cell Line | relative viability (AZD8055 + Foretinib; first compound 0.01 µM) | relative viability (AZD8055 + Foretinib; first compound 0.03162 µM) | relative viability (AZD8055 + Foretinib; first compound 0.1 µM) | relative viability (AZD8055 + Foretinib; first compound 0.3162 µM) | relative viability (AZD8055 + Foretinib; first compound 1 µM) | relative viability (AZD8055 + Alpelisib; first compound 0.01 µM) | relative viability (AZD8055 + Alpelisib; first compound 0.03162 µM) | relative viability (AZD8055 + Alpelisib; first compound 0.1 µM) | relative viability (AZD8055 + Alpelisib; first compound 0.3162 µM) | relative viability (AZD8055 + Alpelisib; first compound 1 µM) | relative viability (AZD8055 + Pemetrexed; first compound 0.01 µM) | relative viability (AZD8055 + Pemetrexed; first compound 0.03162 µM) | relative viability (AZD8055 + Pemetrexed; first compound 0.1 µM) | relative viability (AZD8055 + Pemetrexed; first compound 0.3162 µM) | relative viability (AZD8055 + Pemetrexed; first compound 1 µM) | relative viability (AZD8055 + Olaparib; first compound 0.01 µM) | relative viability (AZD8055 + Olaparib; first compound 0.03162 µM) | relative viability (AZD8055 + Olaparib; first compound 0.1 µM) | relative viability (AZD8055 + Olaparib; first compound 0.3162 µM) | relative viability (AZD8055 + Olaparib; first compound 1 µM) |
| --- | --- | --- | --- | --- | --- | --- | --- | --- | --- | --- | --- | --- | --- | --- | --- | --- | --- | --- | --- | --- |
| H3255 | 0.562 | 0.769 | 0.786 | 0.418 | 0.308 | 0.683 | 0.657 | 0.499 | 0.275 | 0.322 | 0.636 | 0.562 | 0.487 | 0.443 | 0.364 | 0.627 | 0.606 | 0.516 | 0.326 | 0.36 |
| EPLC-272H | 0.537 | 0.418 | 0.378 | 0.274 | 0.21 | 0.927 | 0.754 | 0.546 | 0.445 | 0.404 | 0.361 | 0.363 | 0.369 | 0.321 | 0.331 | 0.627 | 0.589 | 0.333 | 0.281 | 0.245 |
| PC-3 [JPC-3] | 1.12 | 1.12 | 1.1 | 0.774 | 0.492 | 1.17 | 1.06 | 0.972 | 0.555 | 0.47 | 1.17 | 1.09 | 0.877 | 0.622 | 0.454 | 1.19 | 1.26 | 1.13 | 0.798 | 0.61 |
| NCI-H1793 | 0.457 | 0.35 | 0.222 | 0.189 | 0.183 | 0.605 | 0.347 | 0.224 | 0.175 | 0.17 | 0.721 | 0.376 | 0.268 | 0.184 | 0.225 | 0.528 | 0.329 | 0.221 | 0.203 | 0.213 |
| EKVX | 0.872 | 1.25 | 0.731 | 0.702 | 0.367 | 0.94 | 0.834 | 0.587 | 0.34 | 0.401 | 0.476 | 0.436 | 0.389 | 0.322 | 0.289 | 1 | 1.01 | 0.666 | 0.413 | 0.311 |
| ChaGo-K-1 | 1.07 | 0.862 | 0.81 | 0.61 | 0.621 | – | – | – | – | – | 0.26 | 0.262 | 0.256 | 0.251 | 0.271 | 0.457 | 0.48 | 0.456 | 0.437 | 0.395 |
| NCI-H23 | 1.02 | 0.841 | 0.584 | 0.451 | 0.347 | 0.668 | 0.604 | 0.406 | 0.268 | 0.269 | 0.503 | 0.635 | 0.542 | 0.326 | 0.354 | 0.248 | 0.213 | 0.279 | 0.166 | 0.184 |
| EMC-BAC-2 | 0.965 | 0.846 | 0.809 | 0.393 | 0.347 | 0.706 | 0.663 | 0.469 | 0.281 | 0.297 | 0.501 | 0.465 | 0.474 | 0.396 | 0.316 | 0.391 | 0.465 | 0.395 | 0.272 | 0.244 |
| LOU-NH91 | 0.982 | 0.891 | 0.761 | 0.562 | 0.561 | 0.705 | 0.669 | 0.556 | 0.537 | 0.511 | 0.466 | 0.433 | 0.5 | 0.507 | 0.469 | 1.03 | 0.913 | 0.816 | 0.633 | 0.607 |
| LU99A | 0.859 | 0.627 | 0.681 | 0.264 | 0.302 | 0.32 | 0.261 | 0.158 | 0.189 | 0.228 | 0.227 | 0.211 | 0.235 | 0.177 | 0.169 | 0.293 | 0.226 | 0.161 | 0.183 | 0.168 |
| NCI-H1395 | 0.982 | 0.774 | 0.835 | 0.505 | 0.528 | 1.09 | 0.809 | 0.691 | 0.612 | 0.504 | 0.767 | 0.547 | 0.735 | 0.385 | 0.356 | 0.479 | 0.412 | 0.407 | 0.358 | 0.432 |
| NCI-H460 | 1.12 | 1.09 | 0.812 | 0.376 | 0.206 | 0.314 | 0.195 | 0.148 | 0.0795 | 0.0574 | 0.0514 | 0.0565 | 0.0535 | 0.0755 | 0.0693 | 0.444 | 0.409 | 0.371 | 0.254 | 0.216 |
| 201T | 1.34 | 1.08 | 0.892 | 0.391 | 0.328 | 0.987 | 0.911 | 0.775 | 0.611 | 0.569 | 0.312 | 0.317 | 0.359 | 0.293 | 0.293 | 0.878 | 0.854 | 0.813 | 0.673 | 0.456 |
| NCI-H1944 | 1.04 | 0.793 | 0.648 | 0.409 | 0.321 | 0.716 | 0.63 | 0.543 | 0.366 | 0.25 | 0.57 | 0.568 | 0.454 | 0.286 | 0.294 | 0.41 | 0.428 | 0.393 | 0.254 | 0.259 |
| NCI-H2405 | 1.03 | 0.977 | 0.816 | 0.432 | 0.381 | 0.757 | 0.655 | 0.442 | 0.293 | 0.291 | 1.06 | 0.987 | 0.803 | 0.34 | 0.342 | 0.904 | 0.851 | 0.772 | 0.359 | 0.35 |
| NCI-H1703 | 0.34 | 0.32 | 0.306 | 0.301 | 0.226 | 0.328 | 0.297 | 0.237 | 0.219 | 0.318 | – | – | – | – | – | 0.751 | 0.279 | 0.326 | 0.232 | 0.182 |
